The source of these data is ChEMBL document CHEMBL5291721, “A preclinical secondary pharmacology resource illuminates target-adverse drug reaction associations of marketed drugs” (Nat Commun, 2023).

The target in assay [1] is T1, Cholecystokinin receptor type A (Homo sapiens, UniProt P32238).
T1 sequence (P32238 whole entry): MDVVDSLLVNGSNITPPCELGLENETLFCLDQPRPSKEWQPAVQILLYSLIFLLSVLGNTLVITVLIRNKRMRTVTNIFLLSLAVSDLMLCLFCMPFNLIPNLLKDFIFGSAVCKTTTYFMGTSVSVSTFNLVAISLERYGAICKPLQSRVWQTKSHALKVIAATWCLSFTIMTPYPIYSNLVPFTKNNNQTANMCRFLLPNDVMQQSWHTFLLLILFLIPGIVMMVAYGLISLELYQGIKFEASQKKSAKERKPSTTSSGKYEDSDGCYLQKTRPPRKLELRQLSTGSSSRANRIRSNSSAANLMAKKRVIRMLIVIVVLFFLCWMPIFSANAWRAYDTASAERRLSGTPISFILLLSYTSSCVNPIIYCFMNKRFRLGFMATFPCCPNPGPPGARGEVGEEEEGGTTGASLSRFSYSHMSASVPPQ

The target in assay [2] is Sodium-dependent noradrenaline transporter (Homo sapiens, UniProt P23975).
The target of assay [3] is T2, 5-hydroxytryptamine receptor 3A (Homo sapiens, UniProt P46098).
T2 sequence (P46098 whole entry): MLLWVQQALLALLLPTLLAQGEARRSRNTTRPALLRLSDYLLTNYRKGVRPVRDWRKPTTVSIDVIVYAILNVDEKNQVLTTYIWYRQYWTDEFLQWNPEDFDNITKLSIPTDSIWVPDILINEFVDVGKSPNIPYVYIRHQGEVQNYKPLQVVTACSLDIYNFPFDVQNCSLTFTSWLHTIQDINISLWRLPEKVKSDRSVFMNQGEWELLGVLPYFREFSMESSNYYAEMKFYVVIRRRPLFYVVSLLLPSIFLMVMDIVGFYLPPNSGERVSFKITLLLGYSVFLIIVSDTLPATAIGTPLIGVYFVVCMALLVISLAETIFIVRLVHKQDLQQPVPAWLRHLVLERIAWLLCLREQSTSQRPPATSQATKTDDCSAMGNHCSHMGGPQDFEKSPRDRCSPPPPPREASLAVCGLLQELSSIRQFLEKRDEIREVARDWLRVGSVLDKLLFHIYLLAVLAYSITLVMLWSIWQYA
It is filed as functional.

For assay [4], the target named is T3, Muscarinic acetylcholine receptor M2 (Homo sapiens, UniProt P08172).
T3 sequence (P08172 whole entry): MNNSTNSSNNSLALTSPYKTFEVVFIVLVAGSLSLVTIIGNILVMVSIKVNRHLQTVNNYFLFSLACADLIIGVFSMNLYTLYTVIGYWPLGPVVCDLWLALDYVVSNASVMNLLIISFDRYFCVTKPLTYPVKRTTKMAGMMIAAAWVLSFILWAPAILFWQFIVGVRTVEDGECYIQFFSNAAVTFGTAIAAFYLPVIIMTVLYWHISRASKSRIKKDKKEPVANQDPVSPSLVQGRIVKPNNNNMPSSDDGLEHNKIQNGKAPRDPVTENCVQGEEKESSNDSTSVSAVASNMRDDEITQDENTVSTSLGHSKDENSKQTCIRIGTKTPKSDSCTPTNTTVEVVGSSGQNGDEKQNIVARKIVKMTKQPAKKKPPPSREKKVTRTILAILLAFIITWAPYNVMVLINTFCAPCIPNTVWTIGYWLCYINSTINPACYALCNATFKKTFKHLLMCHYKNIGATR
The format is functional, cell-based.

For assay [5], the target named is T4, Alpha-2A adrenergic receptor (Homo sapiens, UniProt P08913).
T4 sequence (P08913 whole entry): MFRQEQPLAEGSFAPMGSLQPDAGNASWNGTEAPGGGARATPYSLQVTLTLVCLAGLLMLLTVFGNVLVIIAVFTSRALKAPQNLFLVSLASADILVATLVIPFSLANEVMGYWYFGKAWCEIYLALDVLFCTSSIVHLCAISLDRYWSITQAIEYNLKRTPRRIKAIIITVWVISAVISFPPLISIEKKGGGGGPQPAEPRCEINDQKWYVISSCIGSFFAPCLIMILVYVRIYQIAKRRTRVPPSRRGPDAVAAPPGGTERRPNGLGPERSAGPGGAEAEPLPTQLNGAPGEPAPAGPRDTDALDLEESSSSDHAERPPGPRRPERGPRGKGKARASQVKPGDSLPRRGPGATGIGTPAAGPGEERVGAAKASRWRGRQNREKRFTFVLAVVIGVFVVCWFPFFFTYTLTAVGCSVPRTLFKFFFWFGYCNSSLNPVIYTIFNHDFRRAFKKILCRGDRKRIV
It is filed as functional, cell-based.

For assay [6], the target named is T5, Prostaglandin G/H synthase 1 (Rattus norvegicus, UniProt Q63921).
T5 sequence (Q63921 whole entry): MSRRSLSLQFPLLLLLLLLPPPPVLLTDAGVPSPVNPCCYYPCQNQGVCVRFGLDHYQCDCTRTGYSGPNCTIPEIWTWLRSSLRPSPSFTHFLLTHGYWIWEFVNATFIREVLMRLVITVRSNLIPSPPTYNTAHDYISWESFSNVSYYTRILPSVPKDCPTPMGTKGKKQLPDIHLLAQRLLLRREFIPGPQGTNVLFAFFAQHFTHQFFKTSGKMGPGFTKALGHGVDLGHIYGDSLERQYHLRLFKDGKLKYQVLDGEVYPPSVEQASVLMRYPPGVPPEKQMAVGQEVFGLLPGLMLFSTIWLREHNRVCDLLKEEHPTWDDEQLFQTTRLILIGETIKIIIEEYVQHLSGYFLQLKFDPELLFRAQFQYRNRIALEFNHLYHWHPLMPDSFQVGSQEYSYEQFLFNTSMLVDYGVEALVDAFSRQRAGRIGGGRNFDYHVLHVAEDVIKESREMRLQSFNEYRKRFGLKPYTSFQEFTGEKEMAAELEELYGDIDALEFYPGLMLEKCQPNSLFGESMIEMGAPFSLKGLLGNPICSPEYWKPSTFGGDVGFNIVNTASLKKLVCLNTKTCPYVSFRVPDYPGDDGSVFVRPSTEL
It is filed as functional.

Assay [7] has as its target cGMP-inhibited 3',5'-cyclic phosphodiesterase 3A (Homo sapiens, UniProt Q14432). The format is functional.
Also: assay procedure not described here.

Sequence of cGMP-inhibited 3',5'-cyclic phosphodiesterase 3A (Q14432 whole entry): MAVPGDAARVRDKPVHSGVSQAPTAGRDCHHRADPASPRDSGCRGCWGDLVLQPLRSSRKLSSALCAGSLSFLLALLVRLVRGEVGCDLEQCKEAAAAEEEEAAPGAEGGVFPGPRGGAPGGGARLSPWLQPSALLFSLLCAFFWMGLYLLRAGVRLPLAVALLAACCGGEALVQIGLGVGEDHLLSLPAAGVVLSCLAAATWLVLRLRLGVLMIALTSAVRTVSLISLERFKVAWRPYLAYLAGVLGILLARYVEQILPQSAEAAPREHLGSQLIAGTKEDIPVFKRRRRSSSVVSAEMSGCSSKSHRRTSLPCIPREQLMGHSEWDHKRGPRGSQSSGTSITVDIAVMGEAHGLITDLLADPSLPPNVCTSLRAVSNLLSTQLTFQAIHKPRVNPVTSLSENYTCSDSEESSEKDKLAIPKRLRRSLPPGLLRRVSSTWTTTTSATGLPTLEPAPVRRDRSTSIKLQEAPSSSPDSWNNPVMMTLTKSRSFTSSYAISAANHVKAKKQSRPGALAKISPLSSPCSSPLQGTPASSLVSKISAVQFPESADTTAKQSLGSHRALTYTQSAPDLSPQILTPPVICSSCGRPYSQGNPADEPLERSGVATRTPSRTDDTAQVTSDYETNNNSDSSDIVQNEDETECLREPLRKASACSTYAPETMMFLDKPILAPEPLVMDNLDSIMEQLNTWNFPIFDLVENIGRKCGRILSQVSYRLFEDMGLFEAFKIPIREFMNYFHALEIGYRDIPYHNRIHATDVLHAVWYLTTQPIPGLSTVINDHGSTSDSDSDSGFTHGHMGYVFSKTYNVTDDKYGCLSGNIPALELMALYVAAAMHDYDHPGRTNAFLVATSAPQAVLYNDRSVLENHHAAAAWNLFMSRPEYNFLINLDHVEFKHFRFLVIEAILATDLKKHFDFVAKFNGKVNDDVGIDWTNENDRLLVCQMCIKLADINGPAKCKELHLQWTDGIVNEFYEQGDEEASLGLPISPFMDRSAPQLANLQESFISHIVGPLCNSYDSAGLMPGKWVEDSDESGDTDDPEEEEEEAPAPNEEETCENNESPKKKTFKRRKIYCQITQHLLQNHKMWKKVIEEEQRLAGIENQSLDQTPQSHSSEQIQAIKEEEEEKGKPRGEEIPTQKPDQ
Sequence of Sodium-dependent noradrenaline transporter (P23975 whole entry): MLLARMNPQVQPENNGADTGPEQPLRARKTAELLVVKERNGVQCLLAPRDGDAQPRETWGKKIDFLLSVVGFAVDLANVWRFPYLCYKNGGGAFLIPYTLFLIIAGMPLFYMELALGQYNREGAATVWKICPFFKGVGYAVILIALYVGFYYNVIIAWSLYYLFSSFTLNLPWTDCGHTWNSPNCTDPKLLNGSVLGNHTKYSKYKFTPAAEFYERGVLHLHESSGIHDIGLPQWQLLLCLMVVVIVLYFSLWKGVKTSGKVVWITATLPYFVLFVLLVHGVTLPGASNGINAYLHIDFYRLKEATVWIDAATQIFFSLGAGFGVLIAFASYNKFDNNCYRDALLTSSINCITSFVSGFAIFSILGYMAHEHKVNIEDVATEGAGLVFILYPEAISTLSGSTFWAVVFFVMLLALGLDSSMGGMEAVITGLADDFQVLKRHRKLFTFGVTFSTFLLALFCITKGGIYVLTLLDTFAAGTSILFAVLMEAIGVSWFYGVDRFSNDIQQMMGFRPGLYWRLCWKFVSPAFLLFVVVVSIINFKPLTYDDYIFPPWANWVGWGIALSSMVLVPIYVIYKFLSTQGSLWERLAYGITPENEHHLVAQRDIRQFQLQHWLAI

For the compound `Cc1cn([C@H]2C=C[C@@H](CO)O2)c(=O)[nH]c1=O` [STAVUDINE], the AC50 in assay [1] was above 30 µM; in assay [2] it was above 10 µM; in assay [3] it was above 10 µM; in assay [4], above 10 µM; in assay [5] it was above 10 µM; in assay [6], above 30 µM. The AC50 in assay [7] is above 30 µM.

Regarding `Cn1nnc2c(C(N)=O)ncn2c1=O` [TEMOZOLOMIDE], the AC50 in assay [1], in assay [2], in assay [3], in assay [4], in assay [5] and in assay [6] was above 30 µM in each case. The same compound displayed an AC50 in assay [7] above 30 µM.

Regarding `O=C(O[C@H]1C[C@H]2CC[C@@H](C1)[N+]21CCCC1)C(O)(c1ccccc1)c1ccccc1` [TROSPIUM], the concentration at half-maximal activity (AC50) in assay [1], in assay [2], in assay [3], in assay [4], in assay [5] and in assay [6] was above 30 µM throughout. The compound also yielded a half-maximal activity concentration (AC50) in assay [7] above 30 µM.

On to `N[C@@H]1[C@H]2CN(c3nc4c(cc3F)c(=O)c(C(=O)O)cn4-c3ccc(F)cc3F)C[C@@H]12` [TROVAFLOXACIN], for which the concentration at half-maximal activity (AC50) in assay [1], in assay [2], in assay [3], in assay [4], in assay [5] and in assay [6] was above 30 µM in each case. Moreover, the half-maximal activity concentration (AC50) in assay [7] was above 30 µM.

Turning to `Nc1ccn([C@H]2CC[C@@H](CO)O2)c(=O)n1` [ZALCITABINE], the half-maximal activity concentration (AC50) in assay [1] was above 10 µM; in assay [2], above 10 µM; in assay [3] it was above 30 µM; in assay [4], above 10 µM; in assay [5], above 10 µM; in assay [6] it was above 10 µM. The compound also came in with an AC50 in assay [7] above 30 µM.

With `Cc1cn([C@H]2C[C@H](N=[N+]=[N-])[C@@H](CO)O2)c(=O)[nH]c1=O` [ZIDOVUDINE], the AC50 in assay [1] is above 30 µM; in assay [2], above 10 µM; in assay [3], above 30 µM; in assay [4], above 10 µM; in assay [5], above 10 µM; in assay [6], above 30 µM. In assay [7], this compound returned an AC50 above 30 µM.

For `NS(=O)(=O)Cc1noc2ccccc12` [ZONISAMIDE], the concentration at half-maximal activity (AC50) is above 10 µM in assay [1]; above 10 µM in assay [2]; above 30 µM in assay [3]; above 10 µM in assay [4]; above 10 µM in assay [5]; above 10 µM in assay [6]. This compound gave an AC50 in assay [7] above 30 µM.

For orientation: AC50 means the midpoint of the concentration-response curve, whichever way the signal moves. A higher AC50 goes with weaker potency.
